Results published in article PMC12382614, “(Oxidopyridyl)Porphyrins of Different Lipophilicity: Photophysical Properties, ROS Production and Phototoxicity on Melanoma Cells Under CoCl2-Induced Hypoxia” (Antioxidants, 2025).
Read-outs that look alike come from different tables or passages of the source.

Tests used:
[1] = UV-Vis absorption spectra in MeOH; format: physicochemical
Description: (§1) The absorption spectra of (oxidopyridyl)porphyrins were recorded in HPLC grade MeOH on a Cary UV 60 (Agilent Technologies, Santa Clara, CA, USA), in a wavelength range of 300–700 nm. The fluorescence spectra in HPLC grade MeOH were recorded on a Cary Eclipse (Agilent Technologies) in a wavelength range of 500–800 nm after excitation at the Soret band wavelength (λ ~ 420 nm). The slits of the spectrometer were set to a bandpass of 5 nm for the excitation and 5 nm for the emission. To calculate the fluorescence quantum yields, the measurements were conducted on an FS5 Edinburgh Instruments spectrometer. Prior to taking the measurements, the solutions were purged with high-purity N2 for at least 15 min. The absorbance of the solutions was set to A < 0.1 at 405 nm and 550 nm, which settings were used for the excitation process. Emission was recorded from 550 to 800 nm, with slits set to the bandpass corresponding to 2 nm for the excitation, and 3 nm for the emission. Fluorescence quantum yield (ΦFL) was calculated in comparison to the tetraphenylporphyrin (TPP; ΦFL = 0.11 [23]) as a standard, according to Equation (S1) and following an equation previously described elsewhere.

[2] = Fluorescence spectra and fluorescence quantum yield in MeOH; format: physicochemical; details: excitation at Soret band
Description: as §1

A375 = assay: Photocytotoxicity, MTT assay; format: cell-based, human; details: red light 643 nm 30 min; for IC50: 6 h incubation; for SI (IC50 (HDF) / IC50 (melanoma cells)) A375 100 µM CoCl2: CoCl2-induced hypoxia; for SI (IC50 (HDF) / IC50 (melanoma cells)) A375 No CoCl2: normoxia
Description: (§2) For (photo)cytotoxicity assays, stock solutions of porphyrins were prepared in DMSO and dissolved in DMEM to the final concentrations. The porphyrin incubation time was 6h. Irradiation of the cells was with red light (λ = 643 nm) for 30 min (light dose, 3.6 J/cm^2). Nonirradiated cells were used to test the dark toxicity. All measurements were performed in three individual experiments, and the results are shown as the proliferation (%) of the cells and were calculated as IC50 values.
(§3) The cytotoxicity of (oxidopyridyl)porphyrins was assessed by an MTT assay on the HDF, MeWo and A375 cell lines after 6 h of incubation with porphyrins, without irradiation, or after 30 min of irradiation with red light (λ = 643 nm), and under conditions of normoxia or hypoxia. To induce hypoxia, 100 µM of CoCl2 was added at least two hours before the porphyrins. […] Oxygen is also one of the substrates for the activity of prolyl hydroxylases; therefore, in both cases, the result is the blockage of hydroxylation of HIF-1α and, consequently, its increase and stabilisation, which, in the case of CoCl2-induced hypoxia, can be maintained for several hours.

HDF = assay: Photocytotoxicity, MTT assay; format: cell-based, human; details: 6 h incubation, red light 643 nm 30 min
Description: as §2, §3

MeWo = assay: Photocytotoxicity, MTT assay; format: cell-based, human; details: red light 643 nm 30 min; for IC50: 6 h incubation; for SI (IC50 (HDF) / IC50 (melanoma cells)) MeWo 100 µM CoCl2: CoCl2-induced hypoxia; for SI (IC50 (HDF) / IC50 (melanoma cells)) MeWo No CoCl2: normoxia
Description: as §2, §3

[3] = tested on: HDF, MeWo and A375 cell lines; assay: (Photo)cytotoxicity MTT assay, statements made for all cell lines; format: cell-based, human; details: irradiation 643 nm
Description: as §2, §3

[4] = Homo sapiens, A-375, light or radiation study, 3.6 J/cm^2, 100 μM CoCl2 at least 2 h before porphyrin, read-out: IC50 A375 CoCl2
[5] = Homo sapiens, A-375, light or radiation study, 3.6 J/cm^2, normoxia, read-out: IC50 A375 No CoCl2
[6] = Homo sapiens, HDF, light or radiation study, 3.6 J/cm^2, 100 μM CoCl2 at least 2 h before porphyrin, read-out: IC50 HDF CoCl2
[7] = Homo sapiens, HDF, light or radiation study, 3.6 J/cm^2, normoxia, read-out: IC50 HDF No CoCl2
[8] = Homo sapiens, MeWo, light or radiation study, 3.6 J/cm^2, 100 μM CoCl2 at least 2 h before porphyrin, read-out: IC50 MeWo CoCl2
[9] = Homo sapiens, MeWo, light or radiation study, 3.6 J/cm^2, normoxia, read-out: IC50 MeWo No CoCl2
[10] = 3.6 J/cm^2, 100 μM CoCl2 at least 2 h before porphyrin, read-out: IC50 A375 CoCl2
[11] = 3.6 J/cm^2, normoxia, read-out: IC50 A375 No CoCl2
[12] = 3.6 J/cm^2, 100 μM CoCl2 at least 2 h before porphyrin, read-out: IC50 HDF CoCl2
[13] = 3.6 J/cm^2, normoxia, read-out: IC50 HDF No CoCl2
[14] = 3.6 J/cm^2, 100 μM CoCl2 at least 2 h before porphyrin, read-out: IC50 MeWo CoCl2
[15] = 3.6 J/cm^2, normoxia, read-out: IC50 MeWo No CoCl2

CCCCCCCCCC(=O)Nc1ccc(-c2c3nc(c(-c4ccc[n+]([O-])c4)c4ccc([nH]4)c(-c4ccc[n+]([O-])c4)c4nc(c(-c5ccc[n+]([O-])c5)c5ccc2[nH]5)C=C4)C=C3)cc1 [TOPyP3-C9H19, 5-(4-Decanamidophenyl)-10,15,20-tris(1-oxido-3-pyridyl)porphyrin]
ε Qx (0-0) [1]: 1500 M⁻¹ cm⁻¹
ε Qx (1-0) [1]: 4900 M⁻¹ cm⁻¹
ε Qy (0-0) [1]: 5100 M⁻¹ cm⁻¹
ε Qy (1-0) [1]: 15400 M⁻¹ cm⁻¹
ε Soret (B) [1]: 296400 M⁻¹ cm⁻¹
λabs Qx (0-0) [1]: 645 nm
λabs Qx (1-0) [1]: 588 nm
λabs Qy (0-0) [1]: 548 nm
λabs Qy (1-0) [1]: 512 nm
λabs Soret (B) [1]: 417 nm
λFL Q(0,0) [2]: 648 nm
λFL Q(0,1) [2]: 713 nm
IC50 (A375; [4]): 5460 ± 1480 nM
IC50 (A375; [5]): 3870 ± 450 nM
SI (IC50 (HDF) / IC50 (melanoma cells)) A375 100 µM CoCl2 (A375): 1.4
SI (IC50 (HDF) / IC50 (melanoma cells)) A375 No CoCl2 (A375): 0.9
IC50 (HDF; [6]): 7650 ± 60 nM
IC50 (HDF; [7]): 3490 ± 450 nM
IC50 (MeWo; [8]): 6280 ± 820 nM
IC50 (MeWo; [9]): 5460 ± 1080 nM
SI (IC50 (HDF) / IC50 (melanoma cells)) MeWo 100 µM CoCl2 (MeWo): 1.2
SI (IC50 (HDF) / IC50 (melanoma cells)) MeWo No CoCl2 (MeWo): 0.6
phototoxicity / reduction of proliferation at 1 µM ([3]; 1 µM, normoxia or CoCl2-induced hypoxia): very low

CCCCCCCCCCCCCC(=O)Nc1ccc(-c2c3nc(c(-c4ccc[n+]([O-])c4)c4ccc([nH]4)c(-c4ccc[n+]([O-])c4)c4nc(c(-c5ccc[n+]([O-])c5)c5ccc2[nH]5)C=C4)C=C3)cc1 [TOPyP3-C13H27, 5-(4-Tetradecanamidophenyl)-10,15,20-tris(1-oxido-3-pyridyl)porphyrin]
ε Qx (0-0) [1]: 2000 M⁻¹ cm⁻¹
ε Qx (1-0) [1]: 6000 M⁻¹ cm⁻¹
ε Qy (0-0) [1]: 5800 M⁻¹ cm⁻¹
ε Qy (1-0) [1]: 19300 M⁻¹ cm⁻¹
ε Soret (B) [1]: 364600 M⁻¹ cm⁻¹
λabs Qx (0-0) [1]: 646 nm
λabs Qx (1-0) [1]: 588 nm
λabs Qy (0-0) [1]: 547 nm
λabs Qy (1-0) [1]: 512 nm
λabs Soret (B) [1]: 417 nm
λFL Q(0,0) [2]: 648 nm
λFL Q(0,1) [2]: 713 nm
IC50 (A375; [4]): 860 ± 60 nM
IC50 (A375; [5]): 780 ± 170 nM
SI (IC50 (HDF) / IC50 (melanoma cells)) A375 100 µM CoCl2 (A375): 3.0
SI (IC50 (HDF) / IC50 (melanoma cells)) A375 No CoCl2 (A375): 1.1
IC50 (HDF; [6]): 2620 ± 190 nM
IC50 (HDF; [7]): 860 ± 40 nM
IC50 (MeWo; [8]): 1790 ± 370 nM
IC50 (MeWo; [9]): 1040 ± 90 nM
SI (IC50 (HDF) / IC50 (melanoma cells)) MeWo 100 µM CoCl2 (MeWo): 1.5
SI (IC50 (HDF) / IC50 (melanoma cells)) MeWo No CoCl2 (MeWo): 0.8

CCCCCCCCCCCCCC(=O)Nc1ccc(-c2c3nc(c(-c4ccc[n+](C)c4)c4ccc([nH]4)c(-c4ccc[n+](C)c4)c4nc(c(-c5ccc[n+](C)c5)c5ccc2[nH]5)C=C4)C=C3)cc1 [TMPyP3-C13H27]
IC50 (A375; [10]): 220 ± 80 nM
IC50 (A375; [11]): 150 ± 60 nM
SI (IC50 (HDF) / IC50 (melanoma cells)) A375 100 µM CoCl2 (A375): 4.5
SI (IC50 (HDF) / IC50 (melanoma cells)) A375 No CoCl2 (A375): 5.4
IC50 (HDF; [12]): 990 ± 50 nM
IC50 (HDF; [13]): 810 ± 50 nM
IC50 (MeWo; [14]): 610 ± 160 nM
IC50 (MeWo; [15]): 430 ± 30 nM
SI (IC50 (HDF) / IC50 (melanoma cells)) MeWo 100 µM CoCl2 (MeWo): 1.6
SI (IC50 (HDF) / IC50 (melanoma cells)) MeWo No CoCl2 (MeWo): 1.9
IC50 ([3]; with or without CoCl2, read-out: IC50 in all the tested cells): ≤ 1000 nM

CCCCCCCCCC(=O)Nc1ccc(-c2c3nc(c(-c4ccc[n+](C)c4)c4ccc([nH]4)c(-c4ccc[n+](C)c4)c4nc(c(-c5ccc[n+](C)c5)c5ccc2[nH]5)C=C4)C=C3)cc1 [TMPyP3-C9H19]
IC50 (A375; [10]): 990 ± 130 nM
IC50 (A375; [11]): 670 ± 30 nM
SI (IC50 (HDF) / IC50 (melanoma cells)) A375 100 µM CoCl2 (A375): 9.0
SI (IC50 (HDF) / IC50 (melanoma cells)) A375 No CoCl2 (A375): 10.6
IC50 (HDF; [12]): 8870 ± 20 nM
IC50 (HDF; [13]): 7090 ± 660 nM
IC50 (MeWo; [14]): 6810 ± 1360 nM
IC50 (MeWo; [15]): 3520 ± 650 nM
SI (IC50 (HDF) / IC50 (melanoma cells)) MeWo 100 µM CoCl2 (MeWo): 1.3
SI (IC50 (HDF) / IC50 (melanoma cells)) MeWo No CoCl2 (MeWo): 2.0
